Source: patent US9504685B2, “Method for treating a pulmonary hypertension condition” (Gilead Sciences, Inc., priority 2006, dated 2016)

Tested on: subjects with PAH
Assay: Example 1 (ARIES-2) placebo-controlled Phase III trial, efficacy
Assay type: in vivo, human
Settings: for Change in 6MWD from baseline to Week 12, mean / Week 12 6MWD, mean: ITT population; for geometric mean percent change in plasma ET-1, increase from baseline / geometric mean plasma BNP, decrease from baseline / mean BDI change from baseline: Week 12
Procedure: The primary objective of this study was to determine the effect of ambrisentan on exercise capacity in subjects with PAH. The secondary objectives of this study were to evaluate effects of ambrisentan on other clinical measures of PAH, as well as safety and tolerability of the study drug.
Study drug was provided in round, biconvex, oral tablets that were identical in appearance. Three strengths of active study drug, containing 1 mg, 2.5 mg or 5 mg of ambrisentan, were used in this study. All study drug was packaged in blister cards. Subjects were instructed to take study drug once daily (q.d.) by mouth (p.o.) in the morning, with or without food.
The maximum study duration was up to 14 weeks from the time of initial screening procedures to the final study visit (Week 12). Screening procedures were performed a maximum of 2 weeks prior to the first dose of study drug. The maximum duration of study drug treatment was 12 weeks.
Men and women, 18 years of age or older, with idiopathic PAH, PAH associated with connective tissue disease (CTD), e.g., mixed CTD, CREST syndrome, systemic sclerosis (scleroderma), overlap syndrome or systemic lupus erythematosus, or PAH associated with anorexigen use or HIV infection were enrolled in this study. Subjects were to have a documented mean PAP≧25 mmHg, PVR>3 mmHg/L/min, and PCWP or LVEDP<15 mmHg. Subjects must have been able to walk a distance of at least 150 m but no more than 450 m during 2 consecutive 6MWTs to be eligible for inclusion in the study.
After a 2 week screening period, eligible subjects were stratified based on the underlying etiology of PAH (idiopathic or non-idiopathic) and were randomized to 1 of 3 treatment groups (placebo, 2.5 mg or 5 mg ambrisentan) in a ratio of 1:1:1. One blinded dose reduction was permitted during the 12-week treatment period in the event of study drug intolerance (e.g., 5 mg to 2.5 mg, 2.5 mg to 1 mg, placebo to placebo). Subjects received a daily dose of 1 mg ambrisentan only if they reduced from the 2.5 mg dose group. Subjects were assessed for efficacy and safety at monthly intervals.
Therefore, after a minimum treatment period of 4 weeks, subjects who met 2 or more of the following predefined early escape criteria may have been removed from the study: • (a) a decrease from baseline of at least 20% in 6MWD; • (b) an increase of 1 or more WHO functional class; • (c) worsening right ventricular failure (e.g., as indicated by increased jugular venous pressure, new or worsening hepatomegaly, ascites or peripheral edema); • (d) rapidly progressing cardiogenic, hepatic or renal failure; and/or • (e) refractory systolic hypotension (systolic blood pressure <85 mmHg).
The primary efficacy endpoint was change from baseline in 6MWD evaluated after 12 weeks of treatment compared to placebo.
The secondary efficacy endpoints included: • (a) time to clinical worsening of PAH, as defined by the time from randomization to the first occurrence of death, lung transplantation, hospitalization for PAH, atrial septostomy, study discontinuation due to addition of other PAH therapeutic agents, or study discontinuation due to 2 or more early escape criteria; • (b) change from baseline measured after 12 weeks of treatment compared to placebo in: • (i) WHO functional class; • (ii) SF-36® health survey physical functioning scale; • (iii) BDI immediately following exercise; and/or • (iv) an assessment of the safety and tolerability of the study drug; and • (c) change from baseline measured after 12 weeks of treatment compared to placebo in plasma levels of ET-1, cTnT and BNP. Safety Assessments
For the ITT population, subjects were considered as belonging to their randomized treatment group, regardless of the actual treatment received.
The primary efficacy endpoint was the change from baseline in 6MWD evaluated after 12 weeks of treatment compared to placebo, where the last observation was carried forward. […]

[1] = 2.5 mg once daily, baseline to Week 12
[2] = 5 mg once daily, baseline to Week 12

Compound: COC(c1ccccc1)(c1ccccc1)[C@H](Oc1nc(C)cc(C)n1)C(=O)O [ambrisentan]
- placebo-adjusted improvement in mean 6MWD at Week 12 (2.5 mg once daily): +32.3 m
- subjects at least maintaining their baseline WHO functional class at Week 12 (2.5 mg once daily): 95.3%
- Clinical worsening event: Atrial septostomy (2.5 mg once daily, 12 weeks): 0 (0.0) subjects (% of ITT population)
- Clinical worsening event: Death (2.5 mg once daily, 12 weeks): 2 (3.1) subjects (% of ITT population)
- Clinical worsening event: Escape criteria (2.5 mg once daily, 12 weeks): 2 (3.1) subjects (% of ITT population)
- Clinical worsening event: Hospitalization for PAH (2.5 mg once daily, 12 weeks): 3 (4.7) subjects (% of ITT population)
- Clinical worsening event: Lung transplantation (2.5 mg once daily, 12 weeks): 0 (0.0) subjects (% of ITT population)
- Clinical worsening event: Study withdrawal due to addition of PAH treatment (2.5 mg once daily, 12 weeks): 0 (0.0) subjects (% of ITT population)
- Clinical worsening: Total subjects with ≧1 event (2.5 mg once daily, 12 weeks): 3 (4.7) subjects (% of ITT population)
- subjects who experienced an event of clinical worsening (2.5 mg once daily, 12 weeks): 4.7%
- Change in 6MWD from baseline to Week 12, mean (2.5 mg once daily): +22.2 meters
- Week 12 6MWD, mean (2.5 mg once daily): 369.6 meters
- geometric mean percent change in plasma ET-1, increase from baseline (2.5 mg once daily): 19%
- geometric mean plasma BNP, decrease from baseline (2.5 mg once daily): 29%
- mean BDI change from baseline (2.5 mg once daily): −0.20
- Change in SF-36 Bodily pain, mean (SD) [1]: +2.34 (11.87)
- Change in SF-36 General health, mean (SD) [1]: +3.84 (6.71)
- Change in SF-36 Mental component summary, mean (SD) [1]: +4.05 (10.30)
- Change in SF-36 Mental health, mean (SD) [1]: +4.98 (9.70)
- Change in SF-36 Physical component summary, mean (SD) [1]: +3.78 (7.63)
- Change in SF-36 Physical functioning, mean (SD) [1]: +3.86 (7.14)
- Change in SF-36 Role-emotional, mean (SD) [1]: +3.11 (12.90)
- Change in SF-36 Role-physical, mean (SD) [1]: +5.87 (11.72)
- Change in SF-36 Social functioning, mean (SD) [1]: +4.55 (9.72)
- Change in SF-36 Vitality, mean (SD) [1]: +4.07 (9.12)
- Change in WHO functional class: +1 class [1]: 2 (3.1) subjects (% of ITT population)
- Change in WHO functional class: +2 classes [1]: 1 (1.6) subjects (% of ITT population)
- Change in WHO functional class: no change [1]: 51 (79.7) subjects (% of ITT population)
- Change in WHO functional class: −1 class [1]: 10 (15.6) subjects (% of ITT population)
- Change in WHO functional class: −2 classes [1]: 0 (0.0) subjects (% of ITT population)
- placebo-adjusted improvement in mean 6MWD at Week 12 (5 mg once daily): +59.4 m
- subjects at least maintaining their baseline WHO functional class at Week 12 (5 mg once daily): 96.8%
- Clinical worsening event: Atrial septostomy (5 mg once daily, 12 weeks): 0 (0.0) subjects (% of ITT population)
- Clinical worsening event: Death (5 mg once daily, 12 weeks): 0 (0.0) subjects (% of ITT population)
- Clinical worsening event: Escape criteria (5 mg once daily, 12 weeks): 1 (1.6) subjects (% of ITT population)
- Clinical worsening event: Hospitalization for PAH (5 mg once daily, 12 weeks): 2 (3.2) subjects (% of ITT population)
- Clinical worsening event: Lung transplantation (5 mg once daily, 12 weeks): 0 (0.0) subjects (% of ITT population)
- Clinical worsening event: Study withdrawal due to addition of PAH treatment (5 mg once daily, 12 weeks): 0 (0.0) subjects (% of ITT population)
- Clinical worsening: Total subjects with ≧1 event (5 mg once daily, 12 weeks): 3 (4.8) subjects (% of ITT population)
- subjects hospitalized for worsening right heart failure (5 mg once daily, 12 weeks): 1 subjects
- subjects who experienced an event of clinical worsening (5 mg once daily, 12 weeks): 4.8%
- Change in 6MWD from baseline to Week 12, mean (5 mg once daily): +49.4 meters
- Week 12 6MWD, mean (5 mg once daily): 404.7 meters
- geometric mean percent change in plasma ET-1, increase from baseline (5 mg once daily): 72%
- geometric mean plasma BNP, decrease from baseline (5 mg once daily): 30%
- mean BDI change from baseline (5 mg once daily): −0.36
- Change in SF-36 Bodily pain, mean (SD) [2]: +0.46 (9.99)
- Change in SF-36 General health, mean (SD) [2]: +4.95 (8.05)
- Change in SF-36 Mental component summary, mean (SD) [2]: +6.28 (11.64)
- Change in SF-36 Mental health, mean (SD) [2]: +4.03 (10.13)
- Change in SF-36 Physical component summary, mean (SD) [2]: +2.97 (7.79)
- Change in SF-36 Physical functioning, mean (SD) [2]: +2.96 (6.81)
- Change in SF-36 Role-emotional, mean (SD) [2]: +8.15 (14.43)
